From patent US20170119660A1, “PHARMACEUTICAL COMPOSITIONS FOR TRANSMUCOSAL DELIVERY” (Solubest Ltd, priority 2015, published 2017)

Key:
[1] = Dissolution test of cannabidiol compositions in FaSSIF; assay type: physicochemical; parameters: unit not given here; details: 200 ml FaSSIF, drug loading 20 mg
Procedure: (§1) The liquid intermediates, containing the active compound(s) and the polymers, were prepared using different size glassware, magnetic plates, peristaltic pump and tubing. The spray-drying process was conducted using Mini Spray Dryer B-290 of Buchi Labortechnik AG. Tablet compression was performed with a Mini 8-D tablet press Dynamic Exim Co. Ltd. Granules preparation was performed with Dynamic Exim dry granulator. The dissolution test was performed in accordance with USP Dissolution Method <711> and FDA Dissolution Methods for Drug Products using the paddle apparatus Pharma Test model DT70 equipped with 1L and 250 ml vessels. The quantification was performed using HPLC, Dionex. Appropriate amount of prepared granules or tablets as well as control powders or tablets were dissolved in 250 ml of artificial saliva, at 37° C., with rotation speed of 75 rpm. Simulated saliva solution was prepared according to SS5 solution recipe reported in Marques et al, 2011, Dissolution Technologies, 18, 15-28. The tablets disintegration test was performed in accordance with USP Disintegration Method <701>.
Unformulated cannabidiol (CBD) and composition of the present invention (Example 13) were subjected to a dissolution test in 200 ml of Fasted State Simulating Intestinal Fluid (FaSSIF). The drug loading was 20 mg.

[2] = Dissolution test of powders and granules in simulated saliva; assay type: physicochemical; details: drug loading 10 mg/ml
Procedure: as §1, with “The dissolution test was performed in accordance with USP Dissolution Method <711> and FDA Dissolution Methods for Drug Products using the paddle apparatus Pharma Test model DT70 equipped with 1L and 250 ml vessels.” left out, “<701>. […] The drug loading in the first set of experiments was 2.5 mg/ml.” for “<701>.”

[3] = system: EpiOral™ buccal tissues; assay: Franz diffusion cell permeability through human buccal tissue; assay type: in vitro ADME; details: 7.5 mg/ml in artificial saliva
Procedure: Permeability studies were performed as follows. The barrier membranes, EpiOral™ representing a highly differentiated, three-dimensional, cultured human buccal tissue equivalent were obtained from MatTek Corp (Ashland, Mass.). Samples were mounted in vertical Franz diffusion cells (PermeGear Inc., Bethlehem, Pa.). […] The fluid in each receptor compartment was maintained at 37±0.5° C. by using a thermostatic water pump (Freed Electric, Haifa, Israel) that circulated water through the jacket surrounding each main chamber. The biological membranes were initially left in the Franz cells for 1 h in order to facilitate their hydration before the experiment. After this period, a 500-μL aliquot of 7.5 mg/ml sumatriptan solution/dispersion in artificial saliva was deposited in each donor compartment. The donor compartment was covered with Parafilm® to prevent evaporation. Receptor solution samples of 300 μL were then collected at 3, 6, 9, 12, 20, 40 and 60 minutes and replaced with 300 μL phosphate buffer, placed on ice and stored at −20° C. until subjected to HPLC or LCMS analysis. Each permeation experiment was conducted as four replicate runs.
The permeability of unformulated sumatriptan base, of API (in the base form) released from the composition of the present invention (Example 3) and of the commercial formulation Imitrex® was tested using EpiOral™ buccal tissues as described in the Methods section. EpiOral™ buccal tissues consist of normal, human-derived epithelial cells that have been cultured to form multilayered, highly differentiated models of the human buccal phenotypes.

Row | Compound | Dissolution profile ([1]; Time 0) | Dissolution profile ([1]; Time 10) | Dissolution profile ([1]; Time 20) | Dissolution profile ([1]; Time 30) | Dissolution profile ([1]; Time 45) | Dissolution profile ([1]; Time 60) | Dissolution profile ([1]; Time 90) | Drug released ([2]; 5 min) [%] | Drug released ([2]; 10 min) [%] | Drug released ([2]; 20 min) [%] | STP Permeability ([3]; time point 0 min) [μg/cm^2] | STP Permeability ([3]; time point 3 min) [μg/cm^2] | STP Permeability ([3]; time point 6 min) [μg/cm^2] | STP Permeability ([3]; time point 9 min) [μg/cm^2] | STP Permeability ([3]; time point 12 min) [μg/cm^2] | STP Permeability ([3]; time point 20 min) [μg/cm^2] | STP Permeability ([3]; time point 40 min) [μg/cm^2] | STP Permeability ([3]; time point 60 min) [μg/cm^2]
1 | C=C(C)[C@@H]1CCC(C)=C[C@H]1c1c(O)cc(CCCCC)cc1O [Unformulated CBD, Cannabidiol] | 0 | 1.7 | 2.7 | 3.8 | 5.2 | 6.3 | 8.2 | – | – | – | – | – | – | – | – | – | – | –
2 | CNS(=O)(=O)Cc1ccc2[nH]cc(CCN(C)C)c2c1 [Unformulated sumatriptan, Sumatriptan base] | – | – | – | – | – | – | – | 13 | 13 | 13 | 0.000 | 0.330 | 0.736 | 0.964 | 1.295 | 2.671 | 6.938 | 14.887
